Measurements as given in ChEMBL document CHEMBL1149445, “Isolation, synthesis, and anti-tumor activities of a novel class of podocarpic diterpenes” (Bioorg Med Chem Lett, 2006).
≈ marks a conversion by molar mass, not a printed value.

Key:
Type in all cases: functional, cell-based
HeLa = assay: Antitumor activity against human cervical carcinoma HeLa cell line
CNE = assay: Antitumor activity against human nasopharyngeal carcinoma CNE cell line
A549 = assay: Antitumor activity against human lung adenocarcinoma A549 cell line
MCF7 = assay: Antitumor activity against human breast adenocarcinoma MCF7 cell line
[1] = Homo sapiens, HeLa, read-out: IC50
[2] = Homo sapiens, CNE, read-out: IC50
[3] = Homo sapiens, A549, read-out: IC50
[4] = Homo sapiens, MCF7, read-out: IC50

| Molecule | IC50 (HeLa; [1]) [µg/mL] | IC50 (CNE; [2]) [µg/mL] | IC50 (A549; [3]) [µg/mL] | IC50 (MCF7; [4]) [µg/mL] | IC50 (HeLa; hela) [µg/mL] | IC50 (CNE; cne) [µg/mL] | IC50 (A549; a549) [µg/mL] | IC50 (MCF7; mcf7) [µg/mL] |
| --- | --- | --- | --- | --- | --- | --- | --- | --- |
| CC1(C)CCC[C@]2(C)c3cc(OCc4ccccc4F)c(O)cc3CC[C@H]12 | 15.3 (≈ 41.5 µM) | 7.2 (≈ 19.5 µM) | 13.7 (≈ 37.2 µM) | 12.4 (≈ 33.7 µM) | – | – | – | – |
| CC1(C)CCC[C@]2(C)c3cc(O)c(OCc4cccc([N+](=O)[O-])c4)cc3CC[C@H]12 | 18.6 (≈ 47 µM) | > 50 | > 50 | > 50 | – | – | – | – |
| CC1(C)CCC[C@]2(C)c3cc(OCc4ccccc4F)c(O)cc3CC[C@@H]12 | > 50 | > 50 | > 50 | > 50 | – | – | – | – |
| CC1(C)CCC[C@]2(C)c3cc(O)c(OCc4ccc(Cl)cc4)cc3CC[C@H]12 | > 50 | > 50 | > 50 | > 50 | – | – | – | – |
| COc1cc2c(cc1OC)[C@@]1(C)CCCC(C)(C)[C@H]1CC2=O | 12.7 (≈ 42 µM) | 3.1 (≈ 10.3 µM) | 26.3 (≈ 87 µM) | 7.8 (≈ 25.8 µM) | – | – | – | – |
| CC1(C)CCC[C@]2(C)c3cc(O)c(O)cc3CC[C@H]12 | 10.9 (≈ 41.9 µM) | 3.6 (≈ 13.8 µM) | 5.7 (≈ 21.9 µM) | 9.6 (≈ 36.9 µM) | – | – | – | – |
| COc1cc2c(cc1OC)[C@@]1(C)CCCC(C)(C)[C@@H]1CC2 | 41.5 (≈ 144 µM) | 25.1 (≈ 87 µM) | 41.7 (≈ 145 µM) | 39.5 (≈ 137 µM) | – | – | – | – |
| COc1cc2c(cc1OC)[C@@]1(C)CCCC(C)(C)[C@H]1C(=O)C2=O | 16.1 (≈ 50.9 µM) | 5.6 (≈ 17.7 µM) | 33.8 (≈ 107 µM) | 16.5 (≈ 52.1 µM) | – | – | – | – |
| CC1(C)CCC[C@]2(C)c3cc(OCc4ccc(Cl)cc4)c(O)cc3CC[C@H]12 | 42.2 (≈ 110 µM) | 27.2 (≈ 70.7 µM) | 46.9 (≈ 122 µM) | > 50 | – | – | – | – |
| CC1(C)CCC[C@]2(C)c3cc(O)c(O)cc3C(=O)C(=O)[C@H]12 | 18 (≈ 62.4 µM) | 9.1 (≈ 31.6 µM) | 25.8 (≈ 89.5 µM) | 24.8 (≈ 86 µM) | – | – | – | – |
| COc1cc2c(cc1OC)[C@@]1(C)CCCC(C)(C)[C@@H]1CC2=O | 25.7 (≈ 85 µM) | > 50 | > 50 | > 50 | – | – | – | – |
| CC1(C)CCC[C@]2(C)c3cc(O)c(O)cc3C(=O)C[C@@H]12 | 27.7 (≈ 101 µM) | 22.1 (≈ 80.6 µM) | > 50 | > 50 | – | – | – | – |
| CC1(C)CCC[C@]2(C)c3cc(OCc4ccc(Cl)cc4)c(O)cc3CC[C@@H]12 | > 50 | > 50 | > 50 | > 50 | – | – | – | – |
| COc1cc2c(cc1OC)[C@@]1(C)CCCC(C)(C)[C@H]1CC2 | 13.2 (≈ 45.8 µM) | 4.5 (≈ 15.6 µM) | 9.6 (≈ 33.3 µM) | 10.9 (≈ 37.8 µM) | – | – | – | – |
| CC1(C)CCC[C@]2(C)c3cc(O)c(OCc4ccc(Cl)cc4)cc3CC[C@@H]12 | > 50 | > 50 | > 50 | > 50 | – | – | – | – |
| CC1(C)CCC[C@]2(C)c3cc(O)c(OCc4ccccc4F)cc3CC[C@@H]12 | > 50 | > 50 | > 50 | > 50 | – | – | – | – |
| CC1(C)CCC[C@]2(C)c3cc(O)c(OCc4cccc([N+](=O)[O-])c4)cc3CC[C@@H]12 | > 50 | > 50 | > 50 | > 50 | – | – | – | – |
| CC1(C)CCC[C@]2(C)c3cc(O)c(OCc4ccccc4F)cc3CC[C@H]12 | 13.4 (≈ 36.4 µM) | 17.8 (≈ 48.3 µM) | 35 (≈ 95 µM) | 42.9 (≈ 116 µM) | – | – | – | – |
| CC1(C)CCC[C@]2(C)c3cc(O)c(O)cc3C(=O)C[C@H]12 | 17.6 (≈ 64.1 µM) | 13.5 (≈ 49.2 µM) | > 50 | 36.2 (≈ 132 µM) | – | – | – | – |
| CC1(C)CCC[C@]2(C)c3cc(OCc4cccc([N+](=O)[O-])c4)c(O)cc3CC[C@H]12 | > 50 | 32.9 (≈ 83.2 µM) | 36.4 (≈ 92 µM) | > 50 | – | – | – | – |
| CC1(C)CCC[C@]2(C)c3cc(OCc4cccc([N+](=O)[O-])c4)c(O)cc3CC[C@@H]12 | > 50 | > 50 | > 50 | > 50 | – | – | – | – |
| CC1(C)CCC[C@]2(C)c3cc(O)c(O)cc3CC[C@@H]12 (stereo in doubt) | – | – | – | – | 42 (≈ 161 µM) | 12.1 (≈ 46.5 µM) | 36.1 (≈ 139 µM) | 36.5 (≈ 140 µM) |
| CC1(C)CCC[C@]2(C)c3cc(O)c(O)cc3CC[C@@H]12 (stereo in doubt; 1) | 24.3 (≈ 93.3 µM) | – | 19.6 (≈ 75.3 µM) | 41.2 (≈ 158 µM) | – | 25.1 (≈ 96.4 µM) | – | – |
| CISPLATIN | – | – | – | – | 5.89 | 2.34 | 3.58 | 6.53 |
